Measurements as given in patent US8618043B2, “Use of ADNF polypeptides for treating anxiety and depression” (Ramot at Tel-Aviv University, priority 2003, dated 2013).

Key:
ND-Swiss male mice = experiment: Morris water maze, chronic intranasal NAP; format: in vivo, mouse; details: eight-month-old mice
Description: ND-Swiss male mice (8 months old; Harlan Sprague Dawley, Inc., Indianapolis, Ind.) were kept under a 12:12 hour light/dark regimen, with food and water available at all times. The mice were kept in the animal care facility of the Tel Aviv University in compliance with institutional and state guidelines.
NAP was custom synthesized by Peninsula (Bachem, Torrance, Calif., USA) or Peptide Technologies (Bethesda, Md., USA). The peptide was dissolved in a solution DD, in which each milliliter included 7.5 mg NaCl, 1.7 mg citric acid monohydrate, 3 mg disodium phosphate dihydrate and 0.2 mg benzalkonium chloride solution (50%). The peptide was administered intranasally every day, 5 days a week, 0.5 μg in 10 μl for each mouse, half the portion in each nostril. The control group received 10 μl of the inert carrier per day. The mice were treated at least 1 h prior to the daily experiment (water maze).
Mice were also subjected to two daily tests in a Morris water maze (diameter 90 cm; depth, 20 cm), as described in WO 01/092333, incorporated herein by reference. Latency to reach the hidden platform over a 90 second test period was recorded. The experiment was performed for 4-5 consecutive days. […] The platform was then removed from the maze and the time spent by the mice in the pool's quarter where the platform used to be was recorded (for 90 seconds). […]

[1] = in vivo; cited from earlier work
[2] = cited from earlier work
[3] = tested on: astrocytes from newborn rat cerebral cortex; experiment: Confocal microscopy of microtubule re-organization; format: cell-based
Description: Rat cerebral cortical cells from newborn pups were prepared as before (Bassan et al., 1999). All procedures performed in these studies were conducted in accordance with the Tel Aviv University regulations and were approved by the Animal Care and Use Committee of Tel Aviv University. The use of animals was not excessive and no animal suffering occurred. In short, cerebral cortical tissue was incubated for 20 minutes at 37° C. in Hanks' balanced salt solution+15 mM HEPES, pH 7.3 containing trypsin B (Biological Industries, Beit Haemek, Israel). Dissociated cerebral cortical cells were added to the culture dish with 5% horse serum in DMEM. Cells were plated in a ratio of 1 cortex per two 75 cm^2 cell culture flasks (polystyrene, Corning, N.Y.). The medium was changed 1 day after plating. For astrocyte cultures, cells were split after 10 incubation days and plated in 24 well plates (each flask into 60 wells containing microscope cover glasses (12 mm diameter) and 250 μl medium). Cells were then incubated two additional weeks. For mixed neuroglial cultures, dissociated cerebral cortical cells were plated on a bed of astrocytes 2 weeks after the split and incubated in neuron-specific medium as before (Bassan et al., 1999; Brenneman, & Gozes, J. Clin. Invest. 97:2299-2307 (1996); based on Forsythe & Westbrook, J. Physiol. 396:515-533 (1988)). […]

Bovine MAP-rich tubulin = experiment: Microtubule assembly, absorbance at 350 nm; format: biochemical; details: negative control peptide, concentration not given
Description: A microtubule assembly kit CytoDYNAMIX Screen 01(CDS01) was obtained from Cytoskeleton (Denver, Colo.). Bovine MAP-rich tubulin (HTS01) was resuspended in G-PEM buffer (80 mM PIPES pH 6.9, 1 mM MgCl, 1 mM EGTA and 1 mM GTP) and subjected to polymerization at 37° C. The reaction was performed in 96-well plate. Assembly was monitored with a spectrophotometer SPECTRAmax 190 (Molecular Devices, Sunnyvale, Calif.) employing continuous recording at 350 nm.

In the case of `CC[C@H](C)[C@H](NC(=O)[C@H](CO)NC(=O)[C@@H](NC(=O)[C@@H]1CCCN1C(=O)[C@H](C)NC(=O)[C@@H](N)CC(N)=O)C(C)C)C(=O)N1CCC[C@H]1C(=O)N[C@@H](CCC(N)=O)C(=O)O` [NAP], the “time to reach the visible platform (motor behavior)” value (ND-Swiss male mice) is listed as 24+7.6, the “adverse side effects in toxicology studies” value [1] is listed as “no adverse side effects” and the brain penetration ([2]; following intranasal administration) is listed as “brain penetration”. The “crossing of the blood-brain barrier” value ([2]; radiolabeled peptides, intranasal, intravenous or intraperitoneal administration) was “can cross the blood-brain barrier”.
In the case of VLGGGSALL [C2], the “microtubule re-organization / microtubule-associated morphological change” value [3] is reported as “did not induce” and the “effect on microtubule assembly” value (Bovine MAP-rich tubulin) is reported as “did not affect”.
